# Values joined by “and” are separate entries in the source; they are usually repeats but may differ in a detail not shown here. Equal entries are not always repeated.
# Assay: solvent given as SMILES
smiles,measurement,setting,value
O=C1c2ccc3c4c(Oc5ccccc5)cc5c6c(ccc(c7c(Oc8ccccc8)cc(c2c37)C(=O)N1c1ccc(O)cc1)c64)C(=O)N(c1ccc(O)cc1)C5=O,fluorescence lifetime,in C1CCOC1,7.52 ns
same,fluorescence lifetime,in CN1CCCC1=O,1.62 ns
same,fluorescence lifetime,in CN(C)C=O,0.05 ns
Cc1cc(C)c(B2c3cc(C)ccc3N3c4ccc(C)cc4B(c4c(C)cc(C)cc4C)c4cc(C)cc2c43)c(C)c1,fluorescence lifetime,in Cc1ccccc1-c1cccc(Oc2cc3c4c(c2)Oc2cc(-c5ccccc5C)ccc2B4c2ccc(-c4ccccc4C)cc2O3)c1,6.9 ns
NC(=O)C1=CN([C@H]2C[C@H](O)[C@@H](COP(=O)([O-])OP(=O)([O-])OC[C@H]3O[C@@H](n4cnc5c(N)ncnc54)C[C@@H]3O)O2)C=CC1,fluorescence lifetime,in O,0.4 ns
Cc1cc(=O)oc2c3c4c(cc12)CCCN4CCC3,fluorescence lifetime,in C1CCCCC1,2.6 ns
same,fluorescence lifetime,in CC#N,3.3 ns
same,fluorescence lifetime,in CCC#N,4.26 ns
same,fluorescence lifetime,in CCCCl,3.75 ns
same,fluorescence lifetime,in CCO,4.5 ns and 4.54 ns
same,fluorescence lifetime,in O,5.9 ns
same,fluorescence lifetime,in OC(C(F)(F)F)C(F)(F)F,6.88 ns
same,fluorescence lifetime,in OCC(F)(F)F,6.36 ns
CCOC(=O)CN1C(=O)C2=C(c3ccc(C#N)cc3)N(CC(=O)OCC)C(=O)C2=C1c1ccccc1,fluorescence lifetime,in CC#N,5.78 ns
same,fluorescence lifetime,in CS(C)=O,7.07 ns
same,fluorescence lifetime,in Cc1ccccc1,4.24 ns
c1ccc(N(c2ccccc2)c2ccc(-c3ccc4c(c3)C3(c5cc(-c6ccc(N(c7ccccc7)c7ccccc7)cc6)ccc5O4)c4ccccc4-c4ccccc43)cc2)cc1,fluorescence lifetime,in ClCCl,1.2 ns
CCN(CC)c1ccc(/N=N/c2nc3ccc([N+](=O)[O-])cc3s2)cc1,fluorescence lifetime,in CC#N,6.03 ns
same,fluorescence lifetime,in ClCCl,8.14 ns
COc1ccc2c(C=C(C#N)C#N)cc3ccc4cc(C=C(C#N)C#N)c5ccc(OC)cc5c4c3c2c1,fluorescence lifetime,in ClC(Cl)Cl,1.5 ns
CCOC(=O)CCCCCn1c2ccccc2c(=O)c2cc(I)ccc21,fluorescence lifetime,in CO,1.7 ns
C[Si](C)(C)c1ccc(-c2ccc(-c3ccc(-c4ccc(-c5ccc([Si](C)(C)C)cc5)s4)c4nsnc34)s2)cc1,fluorescence lifetime,in C1CCOC1,6.9 ns
CCOC(=O)c1ccc2c(c1)sc1c3ccc(C(=O)OCC)cc3n(C)c21,fluorescence lifetime,in CCCO,3.9 ns
Cc1cc(-c2ccc(-n3c4ccccc4c4ccccc43)cc2)nc(-c2ccc(-c3ccccc3)cc2)n1,fluorescence lifetime,in C1CCOC1,4.02 ns
same,fluorescence lifetime,in CN(C)C=O,6.66 ns
same,fluorescence lifetime,in Cc1ccccc1,2.27 ns
same,fluorescence lifetime,in ClC(Cl)Cl,3.93 ns
CC(C)[Si](C#Cc1ccc(C#C[Si](C(C)C)(C(C)C)C(C)C)c2nc3ccccc3nc12)(C(C)C)C(C)C,fluorescence lifetime,in ClCCl,0.37 ns
COc1ccc2c3c(cccc13)C(=O)c1ccccc1-2,fluorescence lifetime,in CC#N,13.2 ns
same,fluorescence lifetime,in CC(C)=O,10.5 ns
same,fluorescence lifetime,in CC(C)O,12.7 ns
same,fluorescence lifetime,in CCCCOCCCC,0.6 ns
same,fluorescence lifetime,in CCOC(C)=O,4.1 ns
same,fluorescence lifetime,in CCOCC,0.9 ns
same,fluorescence lifetime,in CO,12.6 ns
same,fluorescence lifetime,in Cc1ccccc1,1.4 ns
same,fluorescence lifetime,in Clc1ccccc1,6 ns
same,fluorescence lifetime,in N#Cc1ccccc1,14.1 ns
same,fluorescence lifetime,in O=C1CCCCC1,7.8 ns
O=P1(c2ccccc2)C(c2ccc(N(c3ccccc3)c3ccccc3)cc2)=Cc2cc3ccccc3cc21 (configuration not stated),fluorescence lifetime,in ClCCl,4.7 ns
CCOc1cc2c(cc1/C=C/C1=CC(=C(C#N)C#N)CC(C)(C)C1)c1ccccc1n2CC,fluorescence lifetime,in C1CCOC1,4.47 ns
same,fluorescence lifetime,in CC#N,3.81 ns
same,fluorescence lifetime,in CCO,4.28 ns
same,fluorescence lifetime,in CCOC(C)=O,7.08 ns
same,fluorescence lifetime,in CN(C)C=O,4.01 ns
same,fluorescence lifetime,in CS(C)=O,4.94 ns
same,fluorescence lifetime,in Cc1ccccc1,3.84 ns
same,fluorescence lifetime,in ClC(Cl)Cl,4.37 ns
same,fluorescence lifetime,in ClCCl,6.24 ns
CC(=O)c1nc(-c2ccc(N(C)C)cc2)oc1C,fluorescence lifetime,in CC#N,1.91 ns
same,fluorescence lifetime,in CCO,1.66 ns
same,fluorescence lifetime,in CCOC(C)=O,1.87 ns
same,fluorescence lifetime,in CCOCC,1.64 ns
same,fluorescence lifetime,in ClCCl,3.68 ns
N#C[Se]CCCCCOc1ccc2ccc(=O)oc2c1,fluorescence lifetime,in C1CCCCC1,0.16 ns
same,fluorescence lifetime,in C1CCOC1,1.17 ns
same,fluorescence lifetime,in C1COCCO1,0.17 ns
same,fluorescence lifetime,in CC#N,0.56 ns
same,fluorescence lifetime,in CCCCCCC,0.16 ns
same,fluorescence lifetime,in CCO,0.43 ns
same,fluorescence lifetime,in CN(C)C=O,1.02 ns
same,fluorescence lifetime,in CO,0.44 ns
same,fluorescence lifetime,in O,1.75 ns
same,fluorescence lifetime,in OCCO,1.46 ns
CC(C)(C)[Si](C)(C)c1cccc2ccccc12,fluorescence lifetime,in C1CCCCC1,56 ns
F[B-]1(F)OC(c2ccc(C(F)(F)F)cc2)=Cc2ccc3ccccc3[n+]21,fluorescence lifetime,in ClC(Cl)Cl,0.92 ns
COc1ccc(N(c2ccc(OC)cc2)c2ccc(-c3ccc(-c4ccc(-c5ccc(-c6ccc(N(c7ccc(OC)cc7)c7ccc(OC)cc7)cc6)s5)c5nsnc45)s3)cc2)cc1,fluorescence lifetime,in ClC(Cl)Cl,4.9 ns
CN(C)c1ccc(-c2cc3c(s2)c(C(=O)c2ccccc2)cc(=O)n3Cc2ccccc2)cc1,fluorescence lifetime,in ClCCl,1.01 ns
CC(C)(C)c1ccc2c(c1)c1cc(C(C)(C)C)ccc1n2-c1ccc(C#Cc2ccccc2)cc1,fluorescence lifetime,in CC#N,4.75 ns
same,fluorescence lifetime,in CCCCC,2.07 ns
same,fluorescence lifetime,in CO,4.99 ns
same,fluorescence lifetime,in Cc1ccccc1,1.77 ns
same,fluorescence lifetime,in ClC(Cl)Cl,2.39 ns
same,fluorescence lifetime,in ClCCl,3.91 ns
CCCCCCCc1ccc(C2=[N+]3C(=C4c5cc(OCC(CC)CC)c(-c6ccc(CCCCCCC)o6)n5[B-](F)(F)[n+]5c4n(c4cc(C(C)(C)C)ccc45)[B-]3(F)F)C=C2OCC(CC)CC)o1,fluorescence lifetime,in C1CCOC1,0.4 ns
same,fluorescence lifetime,in ClCCl,0.4 ns
CC[Si](CC)(CC)c1cc2ccc3cccc4ccc(c1C(=O)NC(C)(C)C)c2c34,fluorescence lifetime,in ClC(Cl)Cl,7.63 ns
FC(F)(F)c1cc2n(n1)[B-]1(c3ccccc3-c3ccccc31)[n+]1ccc3ccccc3c1-2,fluorescence lifetime,in C1CCCCC1,1.22 ns
same,fluorescence lifetime,in Cc1ccccc1,1.22 ns
same,fluorescence lifetime,in ClCCl,13.7 ns
Cc1ccc2c(c1)C(c1ccccc1)(c1ccccc1)c1cc(C)ccc1N2c1ccc2c(c1)Oc1ccccc1B2c1c(C(C)C)cc(C(C)C)cc1C(C)C,fluorescence lifetime,in Cc1ccccc1,23 ns
same,fluorescence lifetime,in O=P(c1ccccc1)(c1ccccc1)c1ccc2oc3ccc(P(=O)(c4ccccc4)c4ccccc4)cc3c2c1,28 ns
COc1c2ccccc2c(OC)c2c1c1c(C)ccc(OC)c1n2C,fluorescence lifetime,in C1CCCCC1,17.6 ns
same,fluorescence lifetime,in CC#N,24.2 ns
same,fluorescence lifetime,in CO,21.5 ns
same,fluorescence lifetime,in ClCCl,17.6 ns
Cc1ccc(-n2c(C)ccc2C)cc1,fluorescence lifetime,in CC#N,4.4 ns
CC(C)(C)c1ccc2c(c1)c1cc(C(C)(C)C)ccc1n2-c1cc(C(=O)c2ccccn2)cc(-n2c3ccc(C(C)(C)C)cc3c3cc(C(C)(C)C)ccc32)c1,fluorescence lifetime,in c1cc(-c2cccc(-n3c4ccccc4c4ccccc43)c2)cc(-n2c3ccccc3c3ccccc32)c1,5.3 ns
O=c1c2cc(S(=O)(=O)Cl)ccc2[nH]c2ccc(S(=O)(=O)Cl)cc12,fluorescence lifetime,in CS(C)=O,10.8 ns
F[B-]1(F)OC(c2cccc(Br)c2)=Cc2c3ccccc3c3ccccc3[n+]21,fluorescence lifetime,in ClC(Cl)Cl,0.315 ns
CCOC(=O)c1ccc2c(c1)n(C)c1c3ccc(C(=O)OCC)cc3n(C)c21,fluorescence lifetime,in CCCO,7.8 ns
CCCCCCCCCCCCCCCCN(CCCCCCCCCCCCCCCC)c1ccc(/C=C/c2cc[n+](Cc3cc(C[n+]4ccc(/C=C/c5ccc(N(CCCCCCCCCCCCCCCC)CCCCCCCCCCCCCCCC)cc5)cc4)cc(C[n+]4ccc(/C=C/c5ccc(N(CCCCCCCCCCCCCCCC)CCCCCCCCCCCCCCCC)cc5)cc4)c3)cc2)cc1,fluorescence lifetime,in CCCCCCCCO,0.8 ns
same,fluorescence lifetime,in CCO,0.17 ns
same,fluorescence lifetime,in CO,0.11 ns
same,fluorescence lifetime,in ClC(Cl)Cl,0.92 ns
same,fluorescence lifetime,in ClCCl,0.74 ns
COc1ccc(C2=Cc3cc4ccccc4cc3P2(=O)c2ccccc2)cc1 (configuration not stated),fluorescence lifetime,in ClCCl,3.8 ns
COc1ccc2c(c1)c1cc(OC)ccc1n2-c1ccc(S(=O)(=O)c2ccc(-n3c4ccc(OC)cc4c4cc(OC)ccc43)cc2)cc1,fluorescence lifetime,in Cc1ccccc1,11 ns
CCCCCC(=O)c1c2c(c(C(=O)CCCCC)c3c1OC1(CCCC1)O3)OC1(CCCC1)O2,fluorescence lifetime,in CC#N,20.3 ns
same,fluorescence lifetime,in CCCCCC,15.3 ns
same,fluorescence lifetime,in CCO,11.6 ns
same,fluorescence lifetime,in CO,5.9 ns
same,fluorescence lifetime,in ClCCl,24.4 ns
CCCCCCCCCCCCN1C(=O)c2c(c3ccc4cc(-c5ccc(OC)cc5)c(OC)cc4c3c3c2ccc2cc(-c4ccc(OC)cc4)c(OC)cc23)C1=O,fluorescence lifetime,in ClCCl,6.44 ns
CN(C)c1cccc2c1-c1ccccc1C2=O,fluorescence lifetime,in C1CCCCC1,8 ns
same,fluorescence lifetime,in CC#N,4.2 ns
same,fluorescence lifetime,in c1ccccc1,10 ns
O=c1c2ccccc2[nH]c2ccccc12,fluorescence lifetime,in CS(C)=O,9.1 ns
CC1(C)c2ccccc2N(c2ccc(-c3ccc4c(c3)C(=O)c3ccc(-c5ccc(N6c7ccccc7C(C)(C)c7ccccc76)cc5)cc3C4=O)cc2)c2ccccc21,fluorescence lifetime,in Cc1ccccc1,4.2 ns
same,fluorescence lifetime,in c1ccc2c(c1)c1ccccc1n2-c1ccc(-c2ccc(-n3c4ccccc4c4ccccc43)cc2)cc1,41 ns
c1ccc(-c2c3c(c(-c4ccccc4)c4cc5ccccc5cc24)Cc2c(c(-c4ccccc4)c4cc5ccccc5cc4c2-c2ccccc2)C3)cc1,fluorescence lifetime,in CC#N,6.87 ns
same,fluorescence lifetime,in CCCCCC,3.8 ns
same,fluorescence lifetime,in CO,3.68 ns
same,fluorescence lifetime,in Cc1ccccc1,3.24 ns
same,fluorescence lifetime,in ClCCl,2.58 ns
N#Cc1c(-n2c3ccc(Cl)cc3c3cc(Cl)ccc32)c(C#N)c(-n2c3ccc(Cl)cc3c3cc(Cl)ccc32)c(-n2c3ccc(Cl)cc3c3cc(Cl)ccc32)c1-n1c2ccc(Cl)cc2c2cc(Cl)ccc21,fluorescence lifetime,in Cc1ccccc1,0.4 ns
CCN(CC)c1cc2oc(=O)cc(C)c2cc1C,fluorescence lifetime,in CCO,2.56 ns
COc1ccc(-c2cc(C)nc(-c3ccc(-n4c5ccccc5c5ccccc54)cc3)n2)cc1,fluorescence lifetime,in C1CCOC1,2.56 ns
same,fluorescence lifetime,in CN(C)C=O,5.31 ns
same,fluorescence lifetime,in Cc1ccccc1,1.21 ns
same,fluorescence lifetime,in ClC(Cl)Cl,2.97 ns
Cc1nnc(-c2ccc(-n3c4ccccc4c4ccccc43)cc2)o1,fluorescence lifetime,in CCO,2.07 ns
CN(C)c1ccc(/C=C/C=C/c2ccc(B(O)O)cc2)cc1,fluorescence lifetime,in C1CCCCC1,0.621 ns
O=c1oc2ccccc2cc1-c1ccc(-c2cc3ccccc3oc2=O)cc1,fluorescence lifetime,in ClC(Cl)Cl,1.4 ns
c1ccc(/C(=C(\c2ccccc2)c2cc(-c3ccccc3)ccc2-c2ccccc2)c2cc(-c3ccccc3)ccc2-c2ccccc2)cc1,fluorescence lifetime,in C1CCOC1,6.5 ns
CCCCn1c(-c2ccc(-c3nnc(-c4cccs4)o3)cc2)nc(-c2ccccc2)c1-c1ccccc1,fluorescence lifetime,in ClCCl,1.65 ns
COc1nc(Nc2cc3ccc4cccc5ccc(c2)c3c45)nc(OC)n1,fluorescence lifetime,in CCCCCCC,112 ns
c1cc2ccc3cccc4c(-c5cc(-c6nccs6)nc(-c6nccs6)c5)cc(c1)c2c34,fluorescence lifetime,in CC#N,2.9 ns
same,fluorescence lifetime,in CCCCCC,3.24 ns
same,fluorescence lifetime,in CO,3.2 ns
same,fluorescence lifetime,in ClC(Cl)Cl,2.41 ns
CCCCCCCCCCCCN1C(=O)c2c(c3ccc4cc(-c5ccc(Cl)cc5)c(OC)cc4c3c3c2ccc2cc(-c4ccc(Cl)cc4)c(OC)cc23)C1=O,fluorescence lifetime,in ClCCl,6.15 ns
